In paper PMC10605077, “In Vitro and In Silico Antiviral Activity of Di-Halogenated Compounds Derived from L-Tyrosine against Human Immunodeficiency Virus 1 (HIV-1)” (Current Issues in Molecular Biology, 2023):

System: not listed separately
Assay: MTT cytotoxicity assay
Type: cell-based
Conditions: human; TZM-bl cells, MTT, 48 h
Description: The in vitro cytotoxic effect of the di-halogenated compounds on TZM-bl cells was determined with the MTT (3-(4,5-Dimethylthiazol-2-yl)-2,5-diphenyltetrazolium bromide) assay (Sigma-Aldrich, St. Louis, MO, USA). For this purpose, 1.2 × 10^5 cells/well were seeded in 96-well plates, which were incubated at 37 °C and 5% CO2 for 24 h. DMEM was used as a negative control and serial two-fold dilutions of the compounds were performed at 9.37 to 300 μM in DMEM supplemented with 5% FBS. A total of 100 μL/well of each dilution was added and incubated for 48 h. Subsequently, the cells were washed 2 times with 1X PBS, and 30 μL of MTT solution (2 mg/mL) was added and incubated for 2 h at 37 °C, in a light-protected culture. Then, 100 µL of DMSO was added to dissolve the formazan crystals, placed in shaking for 15 min, and absorbance reading was performed at 570 nm, using the Microplate Spectrophotometer (Thermo Scientific™ Multiskan™ GO, Waltham, MA, USA). Two independent experiments evaluated each experimental condition in quadruplicate (n = 8). The percentage of viability was calculated concerning the absorbance of the controls without a compound (100% viability). The 50% cytotoxic concentration was defined as the concentration of each compound that can reduce cell viability to 50% of the untreated cell control. CC50 was calculated and analyzed with GraphPad Prism version 8.0.1 (GraphPad Software, Inc., San Diego, CA, USA).

Row | SMILES | CC50 at 48 h
1 | C[N+](C)(C)CCc1cc(Cl)c(O)c(Cl)c1 [YDC-3M] | 39.9 µM
2 | COc1c(Br)cc(CC[N+](C)(C)C)cc1Br [YODB-3M] | 78.7 µM

System: HIV-GFP-VSV-G reporter virus
Assay: microbe, parasite or virus in culture
Type: cell-based, HIV-1
Conditions: Human immunodeficiency virus 1, TZM-bl, read-out: percentage inhibition of HIV-GFP-VSV-G replication

Row | SMILES | inhibition at 150 µM
3 | C[N+](C)(C)CCc1cc(Cl)c(O)c(Cl)c1 [YDC-3M] | 12.5%

System: not listed separately
Assay: Viability assay of PBMC, flow cytometry with viability dye
Type: cell-based, Human
Conditions: human, PBMC stimulated with PHA and IL-2; all concentrations tested (18.75 μM up to 150 μM), 7 days; read-out: viability level on PBMCs
Description: PBMCs were thawed and let in the culture in RPMI with 10% fetal bovine serum (FBS) (Gibco, Grand Island, NY, USA) for 24 h before each experiment. Cells were stimulated for 48 h with 8 μg/mL of Phytohemagglutinin-PHA (Sigma-Aldrich, St. Louis, MO, USA) and 50 UI/mL of IL-2 (Peprotech, Rocky Hill, CT, USA). In the presence of various concentrations of di-halogenated compounds derived from L-Tyrosine, 2 × 10^5 cells per well were treated and resuspended in 200 µL of fresh medium with 20 UI/mL of IL-2 and incubated in 96-well culture plates for 7 days. After 7 days post-treatment, cell viability was determined using flow cytometry. Briefly, cells were stained with fixable viability dye eFluor 506 (eBioscience, Leicestershire, UK) as detailed in the manufacturer’s protocol for 30 min in the dark. Later, cells were washed and resuspended in PBS, and the percentage of viable cells was measured instead in the LS Fortessa cytometer (BD Biosciences, Franklin Lakes, NJ, USA). Data were analyzed using FlowJo version 10.5.3 (FlowJo, LLC, Ashland, OR, USA).

Row | SMILES | viability at 7 days
4 | C[N+](C)(C)CCc1cc(Cl)c(O)c(Cl)c1 [YDC-3M] | > 90%

System: HIV-1IIIB (X4)
Assay: Anti-HIV activity in infected TZM-bl cells (luciferase), pre- and post-infection treatment
Type: cell-based, Human Immunodeficiency Virus Type 1 (HIV-1)
Conditions: HIV-1IIIB, TZM-bl cells
Description: (§1) TZM-bl cells were plated in a flat-bottom 96-well plate (Corning Inc., Corning, New York, NY, USA) at the concentration of 1.2 × 10^5 cells/well and incubated for 24 h at 37 °C before the addition or not of each compound at non-cytotoxic concentrations (pre-infection treatment). Then, 1 h later the treatment was removed, and the infection was performed by adding 10 ng/mL of HIV-1IIIB p24 (X4) or 2 ng/mL of HIV-1 BaL (R5). After 3 h, the virus was removed and washed, and the compound dilutions were added again (post-infection treatment). Additionally, three wells were left for the negative control (cells without treatment or infection), the positive control of infection (cells infected with the virus without treatment), and the positive control of inhibition (AZT). Antiviral activity was quantified 48 h after treatment by measuring luciferase activity, which is directly proportional to the number of infectious virus particles in the sample [23]. The luciferase activity was quantified via luminescence emitted by the cells using Bright-GloTM Luciferase Assay System (Promega Corp., Madison, WI, USA), following the manufacturer’s instructions. Briefly, 100 μL of the reagent was added to 100 μL of TZM-bl cells and incubated for at least 2 min, protected from light. Relative light units (RLUs) were measured using the multi-mode plate reader (Thermo ScientificTM VarioskanTM LUX). Each experimental condition was performed in triplicate in two independent experiments (n = 6). The percentage inhibition was calculated as follows: 100 − (RLU of treated cells − RLU of uninfected cells/RLU of infection control − RLU of uninfected cells) × 100.

Row | SMILES | anti-HIV activity against X4 strain in words
5 | CN(C)[C@@H](Cc1cc(Br)c(O)c(Br)c1)C(=O)O [TDB-2M] | did not inhibit the replicative activity

Same assay, conditions: Human immunodeficiency virus 1, TZM-bl, 18 µM, TZM-bl cells; read-out: Percentage inhibition of HIV-1IIIB (X4 strain) replication

Row | SMILES | inhibition at 18 µM
6 | CN(C)[C@@H](Cc1cc(Br)c(O)c(Br)c1)C(=O)O [TDB-2M] | -1.3%
7 | C[N+](C)(C)CCc1cc(Cl)c(O)c(Cl)c1 [YDC-3M] | 41%
8 | COc1c(Br)cc(CC[N+](C)(C)C)cc1Br [YODB-3M] | -3.1%

Same assay, conditions: Human immunodeficiency virus 1, TZM-bl, 37 µM, TZM-bl cells; read-out: Percentage inhibition of HIV-1IIIB (X4 strain) replication

Row | SMILES | inhibition at 37 µM
9 | CN(C)[C@@H](Cc1cc(Br)c(O)c(Br)c1)C(=O)O [TDB-2M] | 15.9%
10 | C[N+](C)(C)CCc1cc(Cl)c(O)c(Cl)c1 [YDC-3M] | -25.7%
11 | COc1c(Br)cc(CC[N+](C)(C)C)cc1Br [YODB-3M] | -10.5%

Same assay, conditions: Human immunodeficiency virus 1, TZM-bl, 75 µM, TZM-bl cells; read-out: Percentage inhibition of HIV-1IIIB (X4 strain) replication

Row | SMILES | inhibition at 75 µM
12 | CN(C)[C@@H](Cc1cc(Br)c(O)c(Br)c1)C(=O)O [TDB-2M] | -2.9%
13 | C[N+](C)(C)CCc1cc(Cl)c(O)c(Cl)c1 [YDC-3M] | 31.2%
14 | COc1c(Br)cc(CC[N+](C)(C)C)cc1Br [YODB-3M] | 20.3%

Same assay, conditions: Human immunodeficiency virus 1, TZM-bl, 150 µM, TZM-bl cells; read-out: Percentage inhibition of HIV-1IIIB (X4 strain) replication

Row | SMILES | inhibition at 150 µM
15 | CN(C)[C@@H](Cc1cc(Br)c(O)c(Br)c1)C(=O)O [TDB-2M] | 2.9%
16 | C[N+](C)(C)CCc1cc(Cl)c(O)c(Cl)c1 [YDC-3M] | 29.9%
17 | COc1c(Br)cc(CC[N+](C)(C)C)cc1Br [YODB-3M] | 13.1%

Same assay, conditions: Human immunodeficiency virus 1; HIV-1IIIB (X4), TZM-bl cells, luciferase, 48 h

Row | SMILES | IC50
18 | C[N+](C)(C)CCc1cc(Cl)c(O)c(Cl)c1 [YDC-3M] | 22.3 µM

System: HIV-1 BaL (R5)
Assay: as above
Type: cell-based, Human Immunodeficiency Virus Type 1 (HIV-1)
Conditions: HIV-1 BaL (R5), TZM-bl cells, luciferase, 48 h
Description: as §1

Row | SMILES | IC50
19 | C[N+](C)(C)CCc1cc(Cl)c(O)c(Cl)c1 [YDC-3M] | 37.7 µM

Same assay, conditions: HIV-1 BaL, TZM-bl cells

Row | SMILES | anti-HIV activity against R5 strain in words
20 | CN(C)[C@@H](Cc1cc(Br)c(O)c(Br)c1)C(=O)O [TDB-2M] | did not inhibit the replicative activity

Same assay, conditions: Human immunodeficiency virus 1, BAL, TZM-bl, 48 h, HIV-1 BaL (R5), TZM-bl cells, luciferase

Row | SMILES | IC50
21 | C[N+](C)(C)CCc1cc(Cl)c(O)c(Cl)c1 [YDC-3M] | 37.2 µM

Same assay, conditions: Human immunodeficiency virus 1, BAL; 18 µM, TZM-bl cells; read-out: Percentage inhibition of HIV-1 BaL replication

Row | SMILES | inhibition at 18 µM
22 | CN(C)[C@@H](Cc1cc(Br)c(O)c(Br)c1)C(=O)O [TDB-2M] | -57.9%
23 | C[N+](C)(C)CCc1cc(Cl)c(O)c(Cl)c1 [YDC-3M] | 50.2%
24 | COc1c(Br)cc(CC[N+](C)(C)C)cc1Br [YODB-3M] | -25.1%

Same assay, conditions: Human immunodeficiency virus 1, BAL; 37 µM, TZM-bl cells; read-out: Percentage inhibition of HIV-1 BaL replication

Row | SMILES | inhibition at 37 µM
25 | CN(C)[C@@H](Cc1cc(Br)c(O)c(Br)c1)C(=O)O [TDB-2M] | -45.5%
26 | C[N+](C)(C)CCc1cc(Cl)c(O)c(Cl)c1 [YDC-3M] | 42.3%
27 | COc1c(Br)cc(CC[N+](C)(C)C)cc1Br [YODB-3M] | -14.1%

Same assay, conditions: Human immunodeficiency virus 1, BAL; 75 µM, TZM-bl cells; read-out: Percentage inhibition of HIV-1 BaL replication

Row | SMILES | inhibition at 75 µM
28 | CN(C)[C@@H](Cc1cc(Br)c(O)c(Br)c1)C(=O)O [TDB-2M] | -19.2%
29 | C[N+](C)(C)CCc1cc(Cl)c(O)c(Cl)c1 [YDC-3M] | 33.4%
30 | COc1c(Br)cc(CC[N+](C)(C)C)cc1Br [YODB-3M] | -9%

Same assay, conditions: Human immunodeficiency virus 1, BAL; 150 µM, TZM-bl cells; read-out: Percentage inhibition of HIV-1 BaL replication

Row | SMILES | inhibition at 150 µM
31 | CN(C)[C@@H](Cc1cc(Br)c(O)c(Br)c1)C(=O)O [TDB-2M] | -51.9%
32 | C[N+](C)(C)CCc1cc(Cl)c(O)c(Cl)c1 [YDC-3M] | 27.5%
33 | COc1c(Br)cc(CC[N+](C)(C)C)cc1Br [YODB-3M] | 9.3%

Same assay, conditions: selectivity index against HIV-1 BaL (CC50 and IC50 of Table 3)

Row | SMILES | SI
34 | C[N+](C)(C)CCc1cc(Cl)c(O)c(Cl)c1 [YDC-3M] | 1.07
